Measured values as given in patent publication US20260272988A1, “COMPOSITION COMPRISING MILK EXTRACELLULAR VESICLES AND GALACTOSE” (FrieslandCampina Nederland B.V., priority 2023, published 2026).

Test system: C2C12 myotubes
Assay: Seahorse mito-stress test, oxygen consumption rate (OCR) in differentiated C2C12 myotubes
Format: cell-based
Conditions: for basal respiration (OCR): C2C12 myotubes exposed 24 hours, compared to control and vehicle control (PBS), FIG. 1 / FIG. 2
Procedure: The execution of the “Seahorse” experiment as used in this example is explained in more detail in Traba et al. (2016) J. Vis. Exp. (117), e54918 especially in FIG. 1 and text relating thereto, and in Rose S, et al. (2014) Oxidative Stress Induces Mitochondrial Dysfunction in a Subset of Autism Lymphoblastoid Cell Lines in a Well-Matched Case Control Cohort. PLoS ONE 9(1): e85436. doi:10.1371/journal.pone.0085436. Briefly, in the Seahorse essay, the Oxygen Consumption Rate (OCR) is measured before and after the addition of inhibitors to derive several parameters of mitochondrial respiration. Initially, baseline cellular OCR is measured, from which basal respiration can be derived by subtracting non-mitochondrial respiration. Next oligomycin, a complex V inhibitor, is added and the resulting OCR is used to derive ATP-linked respiration (by subtracting the oligomycin rate from baseline cellular OCR) and proton leak respiration (by subtracting non-mitochondrial respiration from the oligomycin rate). Next carbonyl cyanide-p-trifluoromethoxyphenyl-hydrazon (FCCP), a protonophore, is added to collapse the inner membrane gradient, allowing the ETC to function at its maximal rate, and maximal respiratory capacity is derived by subtracting nonmitochondrial respiration from the FCCP rate. […] Mitochondrial reserve capacity is calculated by subtracting basal respiration from maximal respiratory capacity. C2C12 cells were routinely cultured in High Glucose Dulbecco's Modified Eagle's Medium (DMEM) supplemented with 10% (v/v) fetal calf serum (FCS), 2 mM glutamine, 25 mM HEPES pH 7.2 and 1% (v/v/v) pen/strep/amphotericin B at 5% CO2 and 37 degrees Celsius. For Seahorse experiments, C2C12 myoblasts (passage 10-20, ATCC) were plated in the morning in XFe96 Seahorse culture plates at a density of 30.000 cells/well. Cells were kept in the flow cabinet for 1 h before being transferred to the incubator. After approximately 6-8 h cells, culture medium was replaced with C2C12 differentiation medium (DMEM with 2% horse serum). C2C12 cells were allowed to differentiate for 5 to 7 days. On the day before the Seahorse run, myotubes were exposed to different nutrients and/or Extracellular Vesicles (mEVs) for 24 hours. Exposure medium was prepared in C2C12 differentiation medium. Galactose and glucose were supplemented to differentiation medium from 1M stocks in H2O. […] In detail, following calibration and equilibration, plates were analyzed in measure/mix cycles of 3 minutes/2 minutes, respectively, in 180 ul Seahorse assay medium. […] In the final injection the nuclear fluorescent stain, Hoechst (40 uM), was also injected, to allow for cell number quantification. […] Images were analyzed using in-house generated scripts in ImageJ and R for processing data. […]

SMILES	basal respiration (OCR)	effect of a higher concentration on basal respiration (C2C12 myotubes, 1.4, 2.75, 5.5 mM, FIG. 2)
O=C[C@H](O)[C@@H](O)[C@@H](O)[C@H](O)CO [Sample 6, Galactose]	increase	–
O=C[C@H](O)[C@@H](O)[C@@H](O)[C@H](O)CO [Sample 7, Galactose]	increase	–
O=C[C@H](O)[C@@H](O)[C@@H](O)[C@H](O)CO [Sample 8, Galactose]	increase	–
O=C[C@H](O)[C@@H](O)[C@@H](O)[C@H](O)CO [galactose, D-galactose]	–	increases
